# Data: article PMC3375340 (Journal of Medicinal Chemistry, 2012)
# How the values were obtained:
# [1] = system: M. tuberculosis H37Rv RFPr; assay: microbe, parasite or virus in culture; format: cell-based; conditions: Mycobacterium tuberculosis
# [2] = system: M. tuberculosis H37Rv INHr; assay: microbe, parasite or virus in culture; format: cell-based; conditions: Mycobacterium tuberculosis
smiles,measurement,setting,value
"CCCCCC[C@H](CN1CCC(COc2cccc(C(=NOC)c3ccc(Cl)cc3)c2)CC1)OC(N)=O [(R)-13, (R)-1-(4-((3-((4-Chlorophenyl)(methoxyimino)methyl)phenoxy)methyl)piperidin-1-yl)octan-2-yl carbamate]",MIC,[1],1.51 µg/mL
same,MIC,[2],1.52 µg/mL
